Test results: paper PMC6926478, “Structures of Respiratory Supercomplex I+III2 Reveal Functional and Conformational Crosstalk” (Molecular Cell, 2019)

Molecular target: T1, SC I+III2 (complex I, NADH/FMN site) (Ovis aries, UniProt Z9LRO2FUZ7)
T1 construct: native supercomplex I+III2 from heart mitochondria, LMNG-extracted, amphipol A8-35 stabilised; complex I has 45 subunits, ~1 MDa; with NADH dehydrogenase [ubiquinone] flavoprotein 2, mitochondrial; NADH-ubiquinone oxidoreductase 75 kDa subunit, mitochondrial; NADH dehydrogenase [ubiquinone] iron-sulfur protein 2, mitochondrial; NADH dehydrogenase [ubiquinone] iron-sulfur protein 7, mitochondrial; NADH-ubiquinone oxidoreductase chain 1; Cytochrome b
Test: cryoEM structure, […] Å focused map of CI peripheral arm
Type: binding
Details: native cofactor

Cc1cc2nc3c(=O)[nH]c(=O)nc-3n(C[C@H](O)[C@H](O)[C@H](O)COP(=O)(O)O)c2cc1C [FMN]
cryoEM structure, 3.8 Å focused map of CI peripheral arm: The FMN, FeS clusters, and heme groups are shown colored by atom
